{
  "source": "paper PMC5218480",
  "about": "(PLoS ONE, 2017)",
  "system": "MV-4-11 cells",
  "experiment": "Gene expression microarray analysis (Affymetrix PrimeView) and GSEA",
  "assay_type": "cell-based, human",
  "set-up": "RFU PODN (11730768_x_at) / Fold change /veh PODN (11730768_x_at) / RFU LINC00158 (11744669_a_at) / Fold change /veh LINC00158 (11744669_a_at) / RFU DUSP10 (11751237_a_at) / Fold change /veh DUSP10 (11751237_a_at) / RFU ID3 (11757404_x_at) / Fold change /veh ID3 (11757404_x_at) / RFU PLEKHG5 (11737974_s_at) / Fold change /veh PLEKHG5 (11737974_s_at) / RFU LRRC4B (11730491_at) / Fold change /veh LRRC4B (11730491_at) / RFU GIMAP4 (11747438_a_at) / Fold change /veh GIMAP4 (11747438_a_at) / RFU KRT8 (11758183_x_at) / Fold change /veh KRT8 (11758183_x_at) / RFU CNN1 (11734310_a_at) / Fold change /veh CNN1 (11734310_a_at) / RFU VPS37D (11726825_at) / Fold change /veh VPS37D (11726825_at) / RFU C10orf10 (11716522_x_at) / Fold change /veh C10orf10 (11716522_x_at) / RFU KIR2DL2 /// KIR2DL4 /// KIR2DL5A /// KIR2DL5B /// KIR2DS1 /// KIR2DS2 /// KIR2DS3 /// KIR2DS4 /// KIR3DL3 /// KIR3DL3 /// KIR3DS1 (11738374_at) / Fold change /veh KIR2DL2 /// KIR2DL4 /// KIR2DL5A /// KIR2DL5B /// KIR2DS1 /// KIR2DS2 /// KIR2DS3 /// KIR2DS4 /// KIR3DL3 /// KIR3DL3 /// KIR3DS1 (11738374_at) / RFU C1QL1 (11718748_at) / Fold change /veh C1QL1 (11718748_at) / RFU TMPRSS4 (11747572_a_at) / Fold change /veh TMPRSS4 (11747572_a_at) / RFU HAMP (11756126_x_at) / Fold change /veh HAMP (11756126_x_at) / RFU RNFT2 (11725882_a_at) / Fold change /veh RNFT2 (11725882_a_at) / RFU NR4A2 (11747474_a_at) / Fold change /veh NR4A2 (11747474_a_at) / RFU ABCC12 (11746883_a_at) / Fold change /veh ABCC12 (11746883_a_at) / RFU TMEM136 (11760407_x_at) / Fold change /veh TMEM136 (11760407_x_at) / RFU CLDN22 /// WWC2 (11732394_at) / Fold change /veh CLDN22 /// WWC2 (11732394_at) / RFU HLA-DPB1 (11760878_x_at) / Fold change /veh HLA-DPB1 (11760878_x_at) / RFU SPINT1 (11716480_a_at) / Fold change /veh SPINT1 (11716480_a_at) / RFU GAP43 (11754022_s_at) / Fold change /veh GAP43 (11754022_s_at) / RFU A4GNT (11735810_at) / Fold change /veh A4GNT (11735810_at) / RFU PRB3 (11715151_x_at) / Fold change /veh PRB3 (11715151_x_at) / RFU TUBB4B (11761932_at) / Fold change /veh TUBB4B (11761932_at) / RFU CAPN14 (11732068_a_at) / Fold change /veh CAPN14 (11732068_a_at) / RFU TMCC2 (11721928_a_at) / Fold change /veh TMCC2 (11721928_a_at) / RFU IRGQ (11745062_a_at) / Fold change /veh IRGQ (11745062_a_at) / RFU FAM174B (11720279_a_at) / Fold change /veh FAM174B (11720279_a_at) / RFU TMPRSS4 (11748680_a_at) / Fold change /veh TMPRSS4 (11748680_a_at) / RFU FAM212B (11763350_a_at) / Fold change /veh FAM212B (11763350_a_at) / RFU PLEKHG5 (11743358_a_at) / Fold change /veh PLEKHG5 (11743358_a_at) / RFU ZSCAN30 (11745921_a_at) / Fold change /veh ZSCAN30 (11745921_a_at) / RFU CMKLR1 (11741424_a_at) / Fold change /veh CMKLR1 (11741424_a_at) / RFU LOC101060620 /// MAPK8IP1 (11723275_at) / Fold change /veh LOC101060620 /// MAPK8IP1 (11723275_at) / RFU SPTSSB (11747773_x_at) / Fold change /veh SPTSSB (11747773_x_at) / RFU PRSS12 (11739890_at) / Fold change /veh PRSS12 (11739890_at) / RFU BIN1 (11741810_x_at) / Fold change /veh BIN1 (11741810_x_at) / RFU WNT11 (11732464_a_at) / Fold change /veh WNT11 (11732464_a_at) / RFU C10orf10 (11716521_a_at) / Fold change /veh C10orf10 (11716521_a_at) / RFU C5orf56 (11738089_at) / Fold change /veh C5orf56 (11738089_at) / RFU CYB561 (11721691_x_at) / Fold change /veh CYB561 (11721691_x_at) / RFU ANKRD19P (11752326_a_at) / Fold change /veh ANKRD19P (11752326_a_at) / RFU OR2T12 /// OR2T33 /// OR2T8 (11738714_s_at) / Fold change /veh OR2T12 /// OR2T33 /// OR2T8 (11738714_s_at) / RFU VCAN (11748164_a_at) / Fold change /veh VCAN (11748164_a_at) / RFU JSRP1 (11732532_at) / Fold change /veh JSRP1 (11732532_at) / RFU KRTAP10-11 (11738290_x_at) / Fold change /veh KRTAP10-11 (11738290_x_at) / RFU MYO3A (11730013_a_at) / Fold change /veh MYO3A (11730013_a_at) / RFU EBF3 (11725865_a_at) / Fold change /veh EBF3 (11725865_a_at) / RFU CAMK2N1 (11719241_x_at) / Fold change /veh CAMK2N1 (11719241_x_at) / RFU C5orf56 (11738088_a_at) / Fold change /veh C5orf56 (11738088_a_at) / RFU OLFML3 (11715873_a_at) / Fold change /veh OLFML3 (11715873_a_at) / RFU LOC100653217 /// NTM (11731650_a_at) / Fold change /veh LOC100653217 /// NTM (11731650_a_at) / RFU MAPK11 (11762145_a_at) / Fold change /veh MAPK11 (11762145_a_at) / RFU FIZ1 (11724087_x_at) / Fold change /veh FIZ1 (11724087_x_at) / RFU OASL (11726364_x_at) / Fold change /veh OASL (11726364_x_at) / RFU SOX15 (11748057_x_at) / Fold change /veh SOX15 (11748057_x_at) / RFU CD79A (11719716_a_at) / Fold change /veh CD79A (11719716_a_at) / RFU HIST1H1D (11736915_at) / Fold change /veh HIST1H1D (11736915_at) / RFU CASKIN2 (11723855_a_at) / Fold change /veh CASKIN2 (11723855_a_at) / RFU LOC730098 (11760151_x_at) / Fold change /veh LOC730098 (11760151_x_at) / RFU OR4N2 (11742367_at) / Fold change /veh OR4N2 (11742367_at) / RFU PRRT2 (11749266_a_at) / Fold change /veh PRRT2 (11749266_a_at) / RFU SNX32 (11753110_a_at) / Fold change /veh SNX32 (11753110_a_at) / RFU CDHR5 (11726645_a_at) / Fold change /veh CDHR5 (11726645_a_at) / RFU RCAN1 (11760418_a_at) / Fold change /veh RCAN1 (11760418_a_at) / RFU FAM167A (11723789_a_at) / Fold change /veh FAM167A (11723789_a_at) / RFU FAM26E (11764081_at) / Fold change /veh FAM26E (11764081_at) / RFU ISYNA1 (11749810_s_at) / Fold change /veh ISYNA1 (11749810_s_at) / RFU ACY1 (11761880_at) / Fold change /veh ACY1 (11761880_at) / RFU 11764098_at / Fold change /veh 11764098_at / RFU SAMD14 (11745864_x_at) / Fold change /veh SAMD14 (11745864_x_at) / RFU NPB (11741838_a_at) / Fold change /veh NPB (11741838_a_at) / RFU TMPRSS6 (11731388_a_at) / Fold change /veh TMPRSS6 (11731388_a_at) / RFU KRTAP10-2 (11738614_at) / Fold change /veh KRTAP10-2 (11738614_at) / RFU ARHGAP8 /// PRR5-ARHGAP8 (11727945_x_at) / Fold change /veh ARHGAP8 /// PRR5-ARHGAP8 (11727945_x_at) / RFU KRTAP5-7 /// NADSYN1 (11734609_at) / Fold change /veh KRTAP5-7 /// NADSYN1 (11734609_at) / RFU RASL12 (11751679_a_at) / Fold change /veh RASL12 (11751679_a_at) / RFU CDKN2B (11736163_a_at) / Fold change /veh CDKN2B (11736163_a_at) / RFU PRF1 (11729649_at) / Fold change /veh PRF1 (11729649_at) / RFU, ZNF638 /// ZNF638-IT1 / Fold change vs veh, ZNF638 /// ZNF638-IT1 / RFU, PANK3 / Fold change vs veh, PANK3 / RFU, SH3YL1 / Fold change vs veh, SH3YL1 / RFU, ZEB2 / Fold change vs veh, ZEB2 / RFU, NRIP1 / Fold change vs veh, NRIP1 / RFU, PTTG1IP / Fold change vs veh, PTTG1IP / RFU, CAPN2 / Fold change vs veh, CAPN2 / RFU, MED14 / Fold change vs veh, MED14 / RFU, SNORA58 / Fold change vs veh, SNORA58 / RFU, C1orf63 / Fold change vs veh, C1orf63 / RFU, LRRFIP1 / Fold change vs veh, LRRFIP1 / RFU, NDUFAF7 / Fold change vs veh, NDUFAF7 / RFU, SLC12A2 / Fold change vs veh, SLC12A2 / RFU, IBTK / Fold change vs veh, IBTK / RFU, ESF1 / Fold change vs veh, ESF1 / Fold change vs veh, TMEM50B / RFU, TAOK1 / Fold change vs veh, TAOK1 / RFU, ACBD3 / Fold change vs veh, ACBD3 / RFU, TMA16 / Fold change vs veh, TMA16 / RFU, RWDD3 / Fold change vs veh, RWDD3 / RFU, BCAT1 / Fold change vs veh, BCAT1 / RFU, EDEM3 / Fold change vs veh, EDEM3 / RFU, TMEM33 / Fold change vs veh, TMEM33 / RFU, WDR75 / Fold change vs veh, WDR75 / RFU, AHCTF1 / Fold change vs veh, AHCTF1 / RFU, TFRC / Fold change vs veh, TFRC / RFU, ZDHHC17 / Fold change vs veh, ZDHHC17 / RFU, NOM1 / Fold change vs veh, NOM1 / RFU, ARL8B / Fold change vs veh, ARL8B / RFU, ZBTB11 / Fold change vs veh, ZBTB11 / RFU, TAMM41 / Fold change vs veh, TAMM41 / RFU, KIAA1704 /// LOC100996395 / Fold change vs veh, KIAA1704 /// LOC100996395 / RFU, ING1 / Fold change vs veh, ING1 / RFU, TRMT61B / Fold change vs veh, TRMT61B / RFU, FUBP3 / Fold change vs veh, FUBP3 / RFU, TP53 / Fold change vs veh, TP53 / RFU, TNKS2 / Fold change vs veh, TNKS2 / RFU, ZFP14 / Fold change vs veh, ZFP14 / RFU, ACTR2 / Fold change vs veh, ACTR2 / RFU, PPP3R1 / Fold change vs veh, PPP3R1 / RFU, PIK3R1 / Fold change vs veh, PIK3R1 / RFU, HNRNPA1 / Fold change vs veh, HNRNPA1 / RFU, RNF170 / Fold change vs veh, RNF170 / RFU, ZNF28 / Fold change vs veh, ZNF28 / RFU, RNGTT / Fold change vs veh, RNGTT / RFU, OGT / Fold change vs veh, OGT / RFU, BRD1 / Fold change vs veh, BRD1 / RFU, MARS / Fold change vs veh, MARS / RFU, ZNF655 / Fold change vs veh, ZNF655 / RFU, FAHD1 / Fold change vs veh, FAHD1 / RFU, BDP1 / Fold change vs veh, BDP1 / RFU, LRRCC1 / Fold change vs veh, LRRCC1 / RFU, ARID1A / Fold change vs veh, ARID1A / RFU, ZNF146 / Fold change vs veh, ZNF146 / RFU, ZNF330 / Fold change vs veh, ZNF330 / RFU, GPN3 / Fold change vs veh, GPN3 / RFU, C9orf123 / Fold change vs veh, C9orf123 / RFU, N4BP2L2 / Fold change vs veh, N4BP2L2 / RFU, ARFIP1 / Fold change vs veh, ARFIP1 / RFU, FAM179B / Fold change vs veh, FAM179B / RFU, BCL10 / Fold change vs veh, BCL10 / RFU, UHRF1BP1L / Fold change vs veh, UHRF1BP1L / RFU, BET1 / Fold change vs veh, BET1 / RFU, CNOT2 / Fold change vs veh, CNOT2 / RFU, ZNF268 / Fold change vs veh, ZNF268 / Fold change vs veh, ZNF507 / RFU, DGCR2 / Fold change vs veh, DGCR2 / RFU, WDSUB1 / Fold change vs veh, WDSUB1 / Fold change vs veh, HSP90B1 /// MIR3652 / RFU, ADSS / Fold change vs veh, ADSS / RFU, GK / Fold change vs veh, GK / RFU, ZNF148 / Fold change vs veh, ZNF148 / RFU, TAF9 / Fold change vs veh, TAF9 / RFU, SLC1A5 / Fold change vs veh, SLC1A5 / RFU, SLMO2 / Fold change vs veh, SLMO2 / RFU, ABCC4 / Fold change vs veh, ABCC4 / RFU, LOC101060439 /// RAP1B / Fold change vs veh, LOC101060439 /// RAP1B / RFU, RFX7 / Fold change vs veh, RFX7 / RFU, GTPBP10 / Fold change vs veh, GTPBP10 / RFU, CNEP1R1 / Fold change vs veh, CNEP1R1 / RFU, BIVM-ERCC5 /// ERCC5 / Fold change vs veh, BIVM-ERCC5 /// ERCC5 / RFU, ILF3 / Fold change vs veh, ILF3 / RFU 11762660_at / Fold change /veh 11762660_at / RFU VCAN (11757783_s_at) / Fold change /veh VCAN (11757783_s_at) / RFU DDX43 (11728927_at) / Fold change /veh DDX43 (11728927_at) / RFU KRT8 (11758188_x_at) / Fold change /veh KRT8 (11758188_x_at) / RFU NKD1 (11759106_at) / Fold change /veh NKD1 (11759106_at) / RFU SRD5A1 (11742802_a_at) / Fold change /veh SRD5A1 (11742802_a_at) / RFU TPSAB1 /// TPSB2 (11721975_s_at) / Fold change /veh TPSAB1 /// TPSB2 (11721975_s_at) / RFU GSTM3 (11746129_a_at) / Fold change /veh GSTM3 (11746129_a_at) / RFU IL23R (11737362_x_at) / Fold change /veh IL23R (11737362_x_at) / RFU TMEM51 (11727254_a_at) / Fold change /veh TMEM51 (11727254_a_at) / RFU PIWIL2 (11732686_x_at) / Fold change /veh PIWIL2 (11732686_x_at) / RFU ORM1 (11744905_x_at) / Fold change /veh ORM1 (11744905_x_at) / RFU CCDC152 (11743942_at) / Fold change /veh CCDC152 (11743942_at) / RFU ECM1 (11717891_a_at) / Fold change /veh ECM1 (11717891_a_at) / RFU IL23R (11748794_a_at) / Fold change /veh IL23R (11748794_a_at) / RFU TNFAIP8L3 (11732012_x_at) / Fold change /veh TNFAIP8L3 (11732012_x_at) / RFU MBOAT4 (11741988_at) / Fold change /veh MBOAT4 (11741988_at) / RFU 11764193_at / Fold change /veh 11764193_at / RFU TMEM53 (11763286_at) / Fold change /veh TMEM53 (11763286_at) / RFU MAGEB2 (11727129_at) / Fold change /veh MAGEB2 (11727129_at) / RFU TMEM200A (11744735_a_at) / Fold change /veh TMEM200A (11744735_a_at) / RFU CCDC152 (11751479_a_at) / Fold change /veh CCDC152 (11751479_a_at) / RFU FAM211A (11726209_a_at) / Fold change /veh FAM211A (11726209_a_at) / RFU RGS16 (11746705_a_at) / Fold change /veh RGS16 (11746705_a_at) / RFU VCAN (11755009_s_at) / Fold change /veh VCAN (11755009_s_at) / RFU RHOB (11743442_s_at) / Fold change /veh RHOB (11743442_s_at) / RFU RGS16 (11720943_a_at) / Fold change /veh RGS16 (11720943_a_at) / RFU RGS16 (11720944_at) / Fold change /veh RGS16 (11720944_at) / RFU, VPS4B / Fold change vs veh, VPS4B / RFU, CREB1 / Fold change vs veh, CREB1 / RFU, DNAJC13 / Fold change vs veh, DNAJC13 / RFU, GNAQ / Fold change vs veh, GNAQ / RFU, CDK5R1 / Fold change vs veh, CDK5R1 / RFU, ZRANB3 / Fold change vs veh, ZRANB3 / RFU, CUL4A / Fold change vs veh, CUL4A / RFU, CCNY / Fold change vs veh, CCNY / RFU, UFL1 / Fold change vs veh, UFL1 / RFU, COG3 / Fold change vs veh, COG3 / RFU, DIAPH2 / Fold change vs veh, DIAPH2 / RFU, SKA2 / Fold change vs veh, SKA2 / RFU, AFF3 / Fold change vs veh, AFF3 / RFU, LMF1 / Fold change vs veh, LMF1 / RFU, IPO11 / Fold change vs veh, IPO11 / RFU, DFFB / Fold change vs veh, DFFB / RFU, FOXP1 / Fold change vs veh, FOXP1 / RFU, CARD8 / Fold change vs veh, CARD8 / RFU, STRN3 / Fold change vs veh, STRN3 / RFU, ADK / Fold change vs veh, ADK / RFU, RASSF2 / Fold change vs veh, RASSF2 / RFU, WIPF1 / Fold change vs veh, WIPF1 / RFU, LARP1B / Fold change vs veh, LARP1B / RFU, RASA1 / Fold change vs veh, RASA1 / RFU, RB1 / Fold change vs veh, RB1 / RFU, PPFIA1 / Fold change vs veh, PPFIA1 / RFU, MAT2A / Fold change vs veh, MAT2A / RFU, CCT5 / Fold change vs veh, CCT5 / RFU, WDR92 / Fold change vs veh, WDR92 / RFU, CUX1 / Fold change vs veh, CUX1 / RFU, TTC7A / Fold change vs veh, TTC7A / RFU, TMEM135 / Fold change vs veh, TMEM135 / RFU, DEPTOR / Fold change vs veh, DEPTOR / RFU, CPM / Fold change vs veh, CPM / RFU, DNAJB6 / Fold change vs veh, DNAJB6 / RFU, CACNA2D3 / Fold change vs veh, CACNA2D3 / RFU, DTX4 / Fold change vs veh, DTX4 / RFU, TFCP2 / Fold change vs veh, TFCP2 / RFU, GMCL1 /// GMCL1P1 / Fold change vs veh, GMCL1 /// GMCL1P1 / RFU, AEBP2 / Fold change vs veh, AEBP2 / RFU, SNHG1 /// SNORD22 /// SNORD25 /// SNORD26 /// SNORD27 /// SNORD28 /// SNORD29 /// SNORD31 / Fold change vs veh, SNHG1 /// SNORD22 /// SNORD25 /// SNORD26 /// SNORD27 /// SNORD28 /// SNORD29 /// SNORD31 / Fold change (Aza/veh), C12orf56 (ProbeSet 11735607_a_at) / Fold change (ACY-1035/veh), C12orf56 (ProbeSet 11735607_a_at) / Fold change (Aza/veh), FGFR1OP (ProbeSet 11751329_s_at) / Fold change (ACY-1035/veh), FGFR1OP (ProbeSet 11751329_s_at) / Fold change (Aza/veh), VPS36 (ProbeSet 11739960_a_at) / Fold change (ACY-1035/veh), VPS36 (ProbeSet 11739960_a_at) / RFU SYPL1 (11715823_x_at) / Fold change /veh SYPL1 (11715823_x_at) / RFU IGFBP7 (11715501_s_at) / Fold change /veh IGFBP7 (11715501_s_at) / RFU REEP3 (11722064_at) / Fold change /veh REEP3 (11722064_at) / RFU IGLL1 (11728026_x_at) / Fold change /veh IGLL1 (11728026_x_at): dose or concentration left out as unconfirmed",
  "conditions": "MV-4-11 cells, 48 hours",
  "data": [
    {"smiles": "Nc1ccc(-c2cccs2)cc1NC(=O)c1ccc2c(c1)cc(C1CC1)n2CCN1CCOCC1", "note": "[ACY-1035]", "values": [
      {"measurement": "RFU IRGQ (11745062_a_at)", "value": 18.74, "unit": "RFU"}
    ]}
  ]
}
